The target in this test is T1, mutant G12C K-RAS (Homo sapiens, UniProt P01116, G12C).
T1 construct: made in house; host or cells: E. coli BL21
As to the kind of experiment: covalent adduct formation (CAF) with mutant G12C K-RAS. Format: binding. Also on record: covalent adduct formation (CAF): unit not given here. The note with it: for % CAF @ 10 uM, 1 h: Table 6; for % CAF(60 min) / covalent adduct formation (CAF): 10 micromolar, after 60 minutes; for covalent adduct formation (CAF): Table 7. As for the experimental part: Embodiments disclosed herein are further illustrated by the following examples in Tables 1-4 and the Examples hereinbelow. The Tables indicate the compound number, structure, the observed mass spectral molecular weight peak, and covalent adduct formation (CAF) with a mutant G12C K-RAS after 60 minutes at a concentration of 10 micromolar.

Turning to `C=CC(=O)N1C[C@H](C)N(c2nc(=O)n3c4c(c(-c5c(O)cccc5F)c(Cl)cc24)OC[C@@H]3CN2CCOCC2)C[C@H]1C` (atropisomer, axis not shown) [Example 208, (3R,10R)-7-((2S,5R)-4-acryloyl-2,5-dimethyl-piperazin-1-yl)-9-chloro-10-(2-fluoro-6-hydroxyphenyl)-3-(morpholinomethyl)-2,3-dihydro-5H-[1,4]-oxazino[2,3,4-ij]-quinazolin-5-one], the “% CAF @ 10 uM, 1 h” value worked out at 0%.

`C=CC(=O)N1C[C@H](C)N(c2nc(=O)n3c4c(c(-c5c(O)cccc5F)c(Cl)cc24)OC[C@H]3CN2CCOCC2)C[C@H]1C` (atropisomer, axis not shown) [Example 210, (3R,10R)-7-((2S,5R)-4-acryloyl-2,5-dimethyl-piperazin-1-yl)-9-chloro-10-(2-fluoro-6-hydroxyphenyl)-3-(morpholinomethyl)-2,3-dihydro-5H-[1,4]-oxazino-[2,3,4-ij]-quinazolin-5-one]: the “% CAF @ 10 uM, 1 h” value is on record as 0%.

Consider `C=CC(=O)N1CCN(c2nc(=O)n3c4c(c(-c5c(O)cccc5F)c(Cl)cc24)OC[C@H]3CN2CCC(F)(F)C2)[C@@H](C)C1` (atropisomer, axis not shown) [Example 227, (3R,10R)-7-((S)-4-acryloyl-2-methyl-piperazin-1-yl)-9-chloro-3-((3,3-difluoropyrrolidin-1-yl)methyl)-10-(2-fluoro-6-hydroxyphenyl)-2,3-dihydro-5H-[1,4]-oxazino-[2,3,4-ij]-quinazolin-5-one], for which the “% CAF @ 10 uM, 1 h” value is reported as 0%.

As for `C=CC(=O)N1C[C@H](C)N(c2nc(=O)n3c4c(c(-c5c(O)cccc5F)c(Cl)cc24)OC[C@@H]3CN(C)CC(F)(F)F)C[C@H]1C` (atropisomer, axis not shown) [Example 239, (3S,10R)-7-((2S,5R)-4-acryloyl-2,5-dimethylpiperazin-1-yl)-9-chloro-10-(2-fluoro-6-hydroxyphen-yl)-3-((methyl(2,2,2-trifluoroethyl)amino)-methyl)-2H-[1,4]-oxazino[2,3,4-ij]-quinazolin-5(3H)-one], the “% CAF @ 10 uM, 1 h” value amounted to 3%.

In the case of `C=CC(=O)N1C[C@H](C)N(c2nc(=O)n3c4c(c(-c5c(O)cccc5F)c(Cl)cc24)OC[C@H]3CN(C)CC(F)(F)F)C[C@H]1C` (atropisomer, axis not shown) [Example 241, (3R,10R)-7-((2S,5R)-4-acryloyl-2,5-dimethylpiperazin-1-yl)-9-chloro-10-(2-fluoro-6-hydroxyphen-yl)-3-((methyl(2,2,2-trifluoroethyl)amino)-methyl)-2H-[1,4]-oxazino[2,3,4-ij]-quinazolin-5(3H)-one], the “% CAF @ 10 uM, 1 h” value is reported as 0%.

On to `C=CC(=O)N1C[C@H](C)N(c2nc(=O)n3c4c(c(-c5c(O)cccc5F)c(Cl)cc24)OC[C@H]3Cn2cccn2)C[C@H]1C` (atropisomer, axis not shown) [Example 245, (3R,10R)-3-((1H-pyrazol-1-yl)methyl)-7-((2S,5R)-4-acryloyl-2,5-dimethylpiperazin-1-yl)-9-chloro-10-(2-fluoro-6-hydroxyphen-yl)-2H-[1,4]oxazino-[2,3,4-ij]quinazolin-5(3H)-one], for which the “% CAF @ 10 uM, 1 h” value was found to be 0%.

On to `C=CC(=O)N1C[C@H](C)N(c2nc(=O)n3c4c(c(-c5c(O)cccc5F)c(Cl)cc24)OC[C@H]3CN2CCN(C)CC2)C[C@H]1C` (atropisomer, axis not shown) [Example 300, (3R,10R)-7-((2S,5R)-4-acryloyl-2,5-dimethylpiperazin-1-yl)-9-chloro-10-(2-fluoro-6-hydroxyphen-yl)-3-((4-methylpiper-azin-1-yl)methyl)-2,3-dihydro-5H-[1,4]-oxazino[2,3,4-ij]-quinazolin-5-one], for which the “% CAF @ 10 uM, 1 h” value was 0%.

For the compound `C=CC(=O)N1C[C@H](C)N(c2nc(=O)n3c4c(c(-c5c(O)cccc5F)c(Cl)cc24)OC[C@@H]3CN2CCN(C)CC2)C[C@H]1C` (atropisomer, axis not shown) [Example 305, (3S,10R)-7-((2S,5R)-4-acryloyl-2,5-dimethylpiperazin-1-yl)-9-chloro-10-(2-fluoro-6-hydroxyphen-yl)-3-((4-methylpiper-azin-1-yl)methyl)-2,3-dihydro-5H-[1,4]-oxazino[2,3,4-ij]-quinazolin-5-one], the “% CAF @ 10 uM, 1 h” value came out at 0%.

Consider `C=CC(=O)N1C[C@H](C)N(c2nc(=O)n3c4c(c(-c5c(C)ccc6[nH]ncc56)c(Cl)cc24)OC[C@H]3Cn2cccn2)C[C@H]1C` (atropisomer, axis not shown) [Example 319, (3R,10S)-3-((1H-pyrazol-1-yl)methyl)-7-((2S,5R)-4-acryloyl-2,5-dimethylpiperazin-1-yl)-9-chloro-10-(5-methyl-1H-indazol-4-yl)-2,3-dihydro-5H-[1,4]oxazino[2,3,4-ij]-quinazolin-5-one], for which the “% CAF @ 10 uM, 1 h” value is 0%.

Regarding `C=CC(=O)N1CCN(c2nc(=O)n3c4c(c(-c5c(O)cccc5F)c(Cl)cc24)OCC3)CC1` [Example 1, 7-(4-acryloylpiperazin-1-yl)-9-chloro-10-(2-fluoro-6-hydroxyphenyl)-2H-[1,4]oxazino[2,3,4-ij]quinazolin-5(3H)-one], the “% CAF(60 min)” value (Table 1) worked out at 89%.

Regarding `C=CC(=O)N1CC2(CCN(c3nc(=O)n4c5c(c(-c6c(O)cccc6F)c(Cl)cc35)OCC4)CC2)C1` [Example 2, 7-(2-acryloyl-2,7-diazaspiro[3.5]nonan-7-yl)-9-chloro-10-(2-fluoro-6-hydroxyphenyl)-2H-[1,4]oxazino[2,3,4-ij]quinazolin-5(3H)-one], the “% CAF(60 min)” value (Table 1) is 42.5%.

Turning to `C=CC(=O)N1CCN(c2nc(=O)n3c4c(c(-c5c(C)ccc6[nH]ncc56)c(Cl)cc24)OCC3)CC1` [Example 3, 7-(4-acryloylpiperazin-1-yl)-9-chloro-10-(5-methyl-1H-indazol-4-yl)-2H-[1,4]oxazino[2,3,4-ij]quinazolin-5(3H)-one], the “% CAF(60 min)” value (Table 1) is reported as 67.4%.

On to `C=CC(=O)N1CCN(c2nc(=O)n3c4c(c(-c5c(O)cccc5F)c(Cl)cc24)OC[C@H]3CO)[C@@H](C)C1` [Example 23, (3R,10R)-7-((S)-4-acryloyl-2-methylpiperazin-1-yl)-9-chloro-10-(2-fluoro-6-hydroxyphenyl)-3-(hydroxymethyl)-2H-[1,4]oxazino[2,3,4-ij]quinazolin-5(3H)-one], for which, under “Table 2”, the “% CAF(60 min)” value came out at 0%.

`C=CC(=O)N1C[C@H](C)N(c2c(C#N)c(=O)n3c4c(c(-c5ccc(F)cc5F)ccc24)OC[C@@H]3CN(C)C)C[C@H]1C` [Example 51, (S)-7-((2S,5R)-4-acryloyl-2,5-dimethylpiperazin-1-yl)-10-(2,4-difluorophenyl)-3-((dimethylamino)methyl)-5-oxo-3,5-dihydro-2H-[1,4]oxazino[2,3,4-ij]quinoline-6-carbonitrile]: the “% CAF(60 min)” value (Table 4) is reported as 0%.

Turning to `C=CC(=O)N1C[C@H](C)N(c2c(C#N)c(=O)n3c4c(c(-c5ccc(F)cc5F)ccc24)OC[C@H]3CN(C)C)C[C@H]1C` [Example 52, (R)-7-((2S,5R)-4-acryloyl-2,5-dimethylpiperazin-1-yl)-10-(2,4-difluorophenyl)-3-((dimethylamino)methyl)-5-oxo-3,5-dihydro-2H-[1,4]oxazino[2,3,4-ij]quinoline-6-carbonitrile], the “% CAF(60 min)” value (Table 4) is reported as 0%.

Take `C=CC(=O)N1CCN(c2nc(=O)n3c4c(c(-c5ccc(F)cc5F)c(Cl)cc24)SC(C)(C)C3)[C@@H](C)C1` [Example 76, 7-((S)-4-acryloyl-2-methylpiperazin-1-yl)-9-chloro-10-(2,4-difluorophenyl)-2,2-dimethyl-2,3-dihydro-5H-[1,4]thiazino[2,3,4-ij]quinazolin-5-one]: the “covalent adduct formation (CAF)” value came to 86.8.

Take `C=CC(=O)N1CCN(c2nc(=O)n3c4c(c(-c5ccc(F)cc5F)c(Cl)cc24)SC[C@H]3C)[C@@H](C)C1` [Example 99, (3R)-7-((S)-4-acryloyl-2-methylpiperazin-1-yl)-9-chloro-10-(2,4-difluorophenyl)-3-methyl-2H-[1,4]thiazino[2,3,4-ij]quinazolin-5(3H)-one]: the “covalent adduct formation (CAF)” value is reported as 87.2.

On to `C=CC(=O)N1CCN(c2nc(=O)n3c4c(c(-c5ccc(F)cc5F)c(Cl)cc24)SC[C@H]3COC)[C@@H](C)C1` [Example 130, (3R)-7-((S)-4-acryloyl-2-methylpiperazin-1-yl)-9-chloro-10-(2,4-difluorophenyl)-3-(methoxymethyl)-2,3-dihydro-5H-[1,4]thiazino[2,3,4-ij]quinazolin-5-one], for which the “covalent adduct formation (CAF)” value is 94.5.

Consider `C=CC(=O)N1CCN(c2nc(=O)n3c4c(c(-c5c(F)cc(F)cc5F)c(Cl)cc24)SC[C@H]3COC)[C@@H](C)C1` [Example 137, (R)-7-((S)-4-acryloyl-2-methylpiperazin-1-yl)-9-chloro-3-(methoxymethyl)-10-(2,4,6-trifluorophenyl)-2,3-dihydro-5H-[1,4]thiazino[2,3,4-ij]quinazolin-5-one], for which the “covalent adduct formation (CAF)” value was determined as 86.8.

On to `C=CC(=O)N1CCN(c2nc(=O)n3c4c(c(-c5c(O)cccc5F)c(Cl)cc24)OC[C@@H]3CN2CCOCC2)[C@@H](C)C1` [Example 195, (3S,10R)-7-((S)-4-acryloyl-2-methylpiperazin-1-yl)-9-chloro-10-(2-fluoro-6-hydroxyphenyl)-3-(morpholinomethyl)-2,3-dihydro-5H-[1,4]oxazino[2,3,4-ij]quinazolin-5-one], for which the “% CAF @ 10 uM, 1 h” value is given as 0%.

For the compound `C=CC(=O)N1C[C@H](C)N(c2nc(=O)n3c4c(c(-c5ccccc5C(F)(F)F)c(Cl)cc24)OCC3)C[C@H]1C` [Example 197, 7-((2S,5R)-4-acryloyl-2,5-dimethylpiperazin-1-yl)-9-chloro-10-(2-(trifluoromethyl)phenyl)-2,3-dihydro-5H-[1,4]oxazino[2,3,4-ij]quinazolin-5-one], the “% CAF @ 10 uM, 1 h” value is recorded as 0%.

Values taken from patent US20230203063A1, “TRICYCLIC PYRIDONES AND PYRIMIDONES” (Erasca, Inc., priority 2019, published 2023).
